# Test results reported in US20140271727A1, “METHOD OF USING AN ANTIDEPRESSANT FOR INCREASING IMMUNITY OF A SUBJECT AND TREATING CANCER” (NATIONAL YANG-MING UNIVERSITY, priority 2013, published 2014).
# Assays:
# Format in all cases: in vivo, mouse
# CT26/luc tumor [1] = test: CT26/luc tumor growth in BALB/c mice (caliper tumor volume, BLI); design: mean tumor growth time / mean tumor growth delay time: unit not given here; settings: for mean tumor growth delay time: growth time of treated group minus that of never; for mean tumor growth time: time at which tumor volume reaches 400 mm; for mean tumor growth inhibition rate: growth rate of treated group/growth rate of never
# Protocol: The details in preparing the materials and processing relative analyses will be illustrated as follows. First, CT-26 murine colon carcinoma cells (obtained from Taiwan Liposome Company, Taipei, Taiwan) were transfected with the luciferase gene (hereafter called “CT26/luc”). The CT26/luc tumor cells were cultured in RPMI 1640 medium (Invitrogen) supplemented with 10% fetal bovine serum (Hyclone), 100 units/ml of penicillin, and […] streptomycin (Gibco-BRL) at 37° C. in a 5% CO2 atmosphere.
# Second, all animal study protocols were approved by the Institutional Animal Care and Use Committee (IACAU) of National Yang Ming University. Mirtazapine (0.25 mg) was dissolved in 0.05 ml of 0.9% NaCl plus 0.5% absolute ethanol for each mouse (i.e. 10 mg/kg.) Male BALB/c mice (initial weights 25±2 g, and purchased from the National Laboratory Animal Center, Taipei, Taiwan) were housed in the cages, five mice per cage, under a 12:12 h reverse light/dark cycle with lights off at 6 pm Animals were handled and weighed daily for a week to reduce any non-specific stress responses. And then, please refer to FIG. 1A and FIG. 1B, FIG. 1A and FIG. 1B are diagrams showing the experimental designs according to an embodiment of the present invention. […] “Wild-type” means the mice are monitored without tumor inoculation and mirtazapine treatment, drug means the mice are monitored with continuous mirtazapine treatment but without tumor inoculation, never means the mice are monitored with tumor inoculation and daily 0.05 ml of 0.9% NaCl plus 0.5% absolute ethanol treatment but without mirtazapine treatment, always means the mice are monitored with mirtazapine treatment initiated 2 weeks before the tumor inoculation, and concurrent means the mice are monitored with tumor inoculation and mirtazapine treatment on the same day, and after means the mice are monitored with mirtazapine treatment initiated 2 weeks post the tumor inoculation. That is, the mice were assayed on day 22 for behaviors, and then sacrificed for the measurement of lymphocyte subsets and performed with ex vivo autoradiography.
# Accordingly, the CT26/luc cells (2×10^6 cells/200 μL) suspended in the serum-free RPMI medium were transplanted subcutaneously into the dorsal region of the right thighs of the BALB/c mice. 10 mg/kg/d mirtazapine dissolved in 0.9% sodium chloride and 0.5% ethanol was administered to mice by gavage daily till mice expired or terminated on day 67 post tumor inoculation. Survival rate and interval were assayed for never, always, concurrent, and after (n=10 per group).
# As to the tumor growth, it was monitored using a digital caliper twice a week. The tumor volume was calculated according the following formula: […]
# 0.5236×length×width×thickness
# Bioluminescence imaging (hereafter called “BLI”) used for tumor size tracking was performed with an IVIS50 animal imaging system (Xenogen Corp., USA).
# BALB/c mice = test: Tail suspension test (immobility time); settings: continuous mirtazapine 10 mg/kg/d (drug and always); day 22 after tumor inoculation
# Protocol: Second, all animal study protocols were approved by the Institutional Animal Care and Use Committee (IACAU) of National Yang Ming University. Mirtazapine (0.25 mg) was dissolved in 0.05 ml of 0.9% NaCl plus 0.5% absolute ethanol for each mouse (i.e. 10 mg/kg.) Male BALB/c mice (initial weights 25±2 g, and purchased from the National Laboratory Animal Center, Taipei, Taiwan) were housed in the cages, five mice per cage, under a 12:12 h reverse light/dark cycle with lights off at 6 pm Animals were handled and weighed daily for a week to reduce any non-specific stress responses. […] “Wild-type” means the mice are monitored without tumor inoculation and mirtazapine treatment, drug means the mice are monitored with continuous mirtazapine treatment but without tumor inoculation, never means the mice are monitored with tumor inoculation and daily 0.05 ml of 0.9% NaCl plus 0.5% absolute ethanol treatment but without mirtazapine treatment, always means the mice are monitored with mirtazapine treatment initiated 2 weeks before the tumor inoculation, and concurrent means the mice are monitored with tumor inoculation and mirtazapine treatment on the same day, and after means the mice are monitored with mirtazapine treatment initiated 2 weeks post the tumor inoculation. […]
# IFN-γ = IFN-γ level in tumor by ELISA; settings: tumor lysate 6 weeks after tumor inoculation, 2 mg tumor protein
# Protocol: And then, the level of IFN-γ in the tumor was determined using an ELISA kit (R&D Systems, Taiwan). Briefly, 6 weeks after tumor inoculation, the mice were sacrificed and the tumors were quickly removed and minced, then added with lysis buffer containing 1% protease inhibitor cocktail (T-PER tissue protein extraction reagent, Thermo Scientific, USA). After sonication, the cell mixture was centrifuged with 15000 rpm (Kubota centrifuge 1700, Japan) at 4° C. for 10 min The supernatant was collected for the protein quantification using bovine serum albumin as the standard. Two mg of the tumor proteins was used for the quantification of IFN-γ.
# CT26/luc tumor [2] = test: CT26/luc tumor growth in SCID mice; settings: always-SCID vs never-SCID
# Description: Also, Applicant divides other six-weeks-old immunodeficient male SCID mice (purchased from the National Laboratory Animal Center, Taiwan) into two groups, such as the group named “never-SCID” (hereafter called “never-SCID”) and the group named “always-SCID” (hereafter called “always-SCID”), as control groups for verifying the involvement of the immune system in the inhibition of the tumor growth by mirtazapine. Never-SCID means that the mice are monitored with tumor inoculation but without mirtazapine treatment, and always-SCID means the mice are monitored with mirtazapine treatment initiated 2 weeks before tumor inoculation. As to the tumor growth, it was monitored using a digital caliper twice a week. The tumor volume was calculated according the following formula: 0.5236×length×width×thickness Bioluminescence imaging (hereafter called “BLI”) used for tumor size tracking was performed with an IVIS50 animal imaging system (Xenogen Corp., USA).
# IL-12p70 = test: Serum sIL-12 in SCID mice; settings: SCID mice after mirtazapine treatment
# Description: Also, Applicant divides other six-weeks-old immunodeficient male SCID mice (purchased from the National Laboratory Animal Center, Taiwan) into two groups, such as the group named “never-SCID” (hereafter called “never-SCID”) and the group named “always-SCID” (hereafter called “always-SCID”), as control groups for verifying the involvement of the immune system in the inhibition of the tumor growth by mirtazapine. Never-SCID means that the mice are monitored with tumor inoculation but without mirtazapine treatment, and always-SCID means the mice are monitored with mirtazapine treatment initiated 2 weeks before tumor inoculation. As to the quantification of interleukin-12 (hereafter called “IL-12”), the whole blood withdrawn from the pouch of each mouse was centrifuged at 600×g for 20 min, and serum was collected. The serum IL-12p70 (sIL-12) level was determined using an ELISA kit (R&D Systems, Taiwan). Identification for the lymph node cluster of differentiated CD4+ T helper and CD8+T-cytotoxic lymphocyte subsets was assayed. Briefly, the lymphocytes isolated from the lymph nodes of groins of mice were stained with phycoerythrin-conjugated antimouse CD4 (CD4-PE) monoclonal antibody and peridininchlorophyll-protein-complex-conjugated anti-mouse CD8 (CD8-PerCP) monoclonal antibody (BioLegend, USA). Lymphocyte subsets were identified by FACS analysis using a FACS Calibur flow cytometer. […]
smiles,measurement,setting,value
CN1CCN2c3ncccc3Cc3ccccc3C2C1 (stereo not shown) [mirtazapine],tumor growth inhibition,"CT26/luc tumor [1]; always, concurrent and after vs never, day 22-47 after tumor inoculation, p<0.01",significant tumor growth inhibition
same,mean tumor growth delay time,CT26/luc tumor [1]; group Always (2 weeks before inoculation),18.8
same,mean tumor growth time,CT26/luc tumor [1]; group Always: mirtazapine 10 mg/kg/d by gavage initiated 2 weeks before tumor inoculation,41.3
same,mean tumor growth inhibition rate,CT26/luc tumor [1]; group Always,1.8
same,mean tumor growth delay time,CT26/luc tumor [1]; group Concurrent (same day as inoculation),8.2
same,mean tumor growth time,CT26/luc tumor [1]; group Concurrent: mirtazapine 10 mg/kg/d from the day of tumor inoculation,30.9
same,mean tumor growth inhibition rate,CT26/luc tumor [1]; group Concurrent,1.4
same,mean tumor growth delay time,CT26/luc tumor [1]; group after (2 weeks post inoculation),2.8
same,mean tumor growth time,CT26/luc tumor [1]; group after: mirtazapine 10 mg/kg/d initiated 2 weeks post tumor inoculation,25.4
same,mean tumor growth inhibition rate,CT26/luc tumor [1]; group after,1.1
same,immobility time,BALB/c mice,significantly decreased
same,IFN-γ in tumor,IFN-γ; group Always,85.35 ± 4.5 pg/mL
same,IFN-γ in tumor,IFN-γ; group Concurrent,39.42 ± 7.42 pg/mL
same,IFN-γ in tumor,IFN-γ; group after,19.60 ± 1.13 pg/mL
same,tumor inhibition effect in SCID mice,CT26/luc tumor [2],not found
same,increase of sIL-12 level in SCID mice,IL-12p70,not found
